The values that follow come from US9556130B2, “4-oxo-3,4-dihydro-1,2,3-benzotriazine modulators of GPR139” (Takeda Pharmaceutical Company Limited, priority 2014, dated 2017).

The subject of assay [1] is c-Fos immunoreactivity in the dorsal medial habenula. Nature of the assay: cFos Staining. It counts as in vivo, C57/B16 mice. As to conditions: oral. On the procedure: Methods: After dosing C57/B16 mice for various time courses their brains were prepared for immunohistochemistry. […] Brains are extracted and placed in 4% paraformaldehyde for 3 hours, changed into 20% sucrose/PBS solution to avoid freezing artifacts, and frozen with dry ice. Frozen brain sections are obtained with sliding microtome at 20 um and washed in PBS (2 times for 10 minutes each). Endogenous peroxidase enzyme is blocked with 0.3% H2O2 solution in water for 10 minutes. Sections are rinsed in PBS (3 times for 10 minutes each) and incubated in primary antibody against cFos (Santa Cruz SC-42) at a dilution of 1:10,000 at 4° C. overnight in PBS+0.3% triton and 1% bovine serum albumin. Sections are subsequently rinsed in PBS (3 times for 10 minutes each) and incubated in secondary antibody: goat against rabbit-biotinylated antibody, at a dilution of 1:200 for 1 hour at room temperature in PBS+0.3% triton and 1% bovine serum albumin. Sections are rinsed in PBS (3 times for 10 minutes each) and incubated in ABC mix in PBS; ABC Elite Kit from Vector (PK-1000) for 1 hour at room temperature. Next, the sections are rinsed in PBS (3 times for 10 minutes each) and then in 0.1 M sodium acetate (3 times for 10 minutes each). Reaction is visualized with standard diaminobenzydine procedures: 50 mL of 0.1M sodium acetate containing 20 mg ammonium chloride, 20 mg, diaminobenzydine, 80 mg glucose and 10 mL of glucose oxidase. React for 10 minutes then the reaction is stopped with PBS rinses (3 times for 10 minutes each). cFos cells are then counted.

In assay [2] the target is T1, human GPR139 receptor (Homo sapiens (Human), UniProt Q6DWJ6). Nature of the assay: GPR139 Competition Binding.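 Further: receptor expression induced with doxycycline before membrane preparation, bound radioactivity counted by scintillation, Ki fitted with a four-parameter logistic model.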 Particulars: stably transfected CHO-TRex membranes, 1 nM 3H radioligand; read-out: GPR139 Inhibition (Ki (nM)).
T1 sequence (Q6DWJ6 whole entry): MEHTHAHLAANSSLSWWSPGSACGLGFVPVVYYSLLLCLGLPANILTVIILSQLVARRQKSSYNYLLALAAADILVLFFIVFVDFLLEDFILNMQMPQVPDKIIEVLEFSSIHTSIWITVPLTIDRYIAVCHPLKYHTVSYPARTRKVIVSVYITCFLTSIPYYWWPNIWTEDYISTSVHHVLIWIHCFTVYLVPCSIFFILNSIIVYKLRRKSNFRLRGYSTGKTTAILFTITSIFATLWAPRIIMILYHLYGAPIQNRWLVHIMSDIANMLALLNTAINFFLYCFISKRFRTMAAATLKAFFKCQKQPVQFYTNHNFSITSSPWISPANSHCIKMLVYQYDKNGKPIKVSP
The target in assay [3] is T1, human GPR139 receptor. Nature of the assay: Activation of Calcium Signaling of GPR139 In Vitro Assay.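 Further: receptor expression induced with doxycycline, calcium fluorescence read continuously for one minute after compound addition, EC50 taken from a four-parameter logistic fit.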 It counts as cell-based. Particulars: stably transfected CHO-TRex cells, Calcium 5 dye, FLIPR Tetra.

`C[C@H](NC(=O)Cn1nnc2ccccc2c1=O)c1ccc(OC(F)(F)F)cc1` [Example 2, (S)-2-(4-oxobenzo[d][1,2,3]triazin-3(4H)-yl)-N-(1-(4-(trifluoromethoxy)phenyl)ethyl)acetamide]: the “cFos cell count, Mean” value in assay [1] (desensitization experiment, 0.1 mg/kg 1d) is on record as 1486; in assay [1] (desensitization experiment, 0.1 mg/kg 5d), 1928; in assay [1] (desensitization experiment, 0.1 mg/kg 10d), 1684; in assay [1] (dose response curve experiment, 0.01 mg/kg), 1376; in assay [1] (dose response curve experiment, 0.03 mg/kg), 986.3; in assay [1] (dose response curve experiment, 0.1 mg/kg), 1381. Further, the “cFos cell count, Mean” value in assay [1] (dose response curve experiment, 0.3 mg/kg) is given as 1408; in assay [1] (dose response curve experiment, 1 mg/kg), 1368; in assay [1] (time course experiment, 0.1 mg/kg 1 hr) it was 787.7; in assay [1] (time course experiment, 0.3 mg/kg 1 hr), 1343; in assay [1] (time course experiment, 0.3 mg/kg 2 hr), 1400; in assay [1] (time course experiment, 0.3 mg/kg 4 hr), 2170. For the same compound, in assay [1] (time course experiment, 3 mg/kg 1 hr), the “cFos cell count, Mean” value was found to be 2365.
The term Ki denotes a dissociation constant, usually derived from enzyme kinetics or from competition with a known ligand. Usually EC50 stands for the concentration needed to bring the measured effect to its halfway point. As for `Cc1ccc([C@H](C)NC(=O)Cn2nnc3cccc(C)c3c2=O)cc1` [Example 39, (S)-2-(5-methyl-4-oxobenzo[d][1,2,3]triazin-3 (4H)-yl)-N-(1-p-tolylethyl)acetamide], the Ki on human GPR139 receptor [2] was 92 nM. Further, the 50% effective concentration (EC50) at human GPR139 receptor [3] is 6 nM.
For the compound `COc1ccc([C@H](C)NC(=O)Cn2nnc3c(C)cccc3c2=O)cc1` [Example 25, (S)—N-(1-(4-methoxyphenyl)ethyl)-2-(8-methyl-4-oxobenzo[d][1,2,3]triazin-3 (4H)-yl)acetamide], on human GPR139 receptor [2], the Ki was determined as 526 nM. Moreover, the half-maximal effective concentration (EC50) at human GPR139 receptor [3] worked out at 8 nM.
Taken in the same sequence, the figures for `Cc1ccc([C@H](C)NC(=O)Cn2nnc3cccc(F)c3c2=O)cc1` [Example 32, (S)-2-(5-fluoro-4-oxobenzo[d][1,2,3]triazin-3(4H)-yl)-N-(1-p-tolylethyl)acetamide] were 459 nM and 16 nM.
The matching figures for `COc1ccc([C@H](C)NC(=O)Cn2nnc3cccc(C)c3c2=O)cc1` [Example 40, (S)—N-(1-(4-methoxyphenyl)ethyl)-2-(5-methyl-4-oxobenzo[d][1,2,3]triazin-3(4H)-yl)acetamide]: 533 nM and 9 nM.
For the compound `CC[C@H](NC(=O)Cn1nnc2ccccc2c1=O)c1ccc(OC(F)(F)F)cc1` [Example 86, (S)-2-(4-oxobenzo[d][1,2,3]triazin-3(4H)-yl)-N-(1-(4-(trifluoromethoxy)phenyl)propyl)acetamide], the Ki on human GPR139 receptor [2] stood at 183 nM. In addition, the concentration for a half-maximal effect (EC50) on human GPR139 receptor [3] worked out at 50 nM.
The matching figures for `COc1cccc2c(=O)n(CC(=O)N[C@@H](C)c3ccc(C(F)(F)F)cc3)nnc12` [Example 63, (S)-2-(8-methoxy-4-oxobenzo[d][1,2,3]triazin-3 (4H)-yl)-N-(1-(4-(trifluoromethyl)phenyl)ethyl)acetamide]: 352 nM and 50 nM.
Taken in the same sequence, the figures for `Cc1ccc([C@H](C)NC(=O)Cn2nnc3cc(C)ccc3c2=O)cc1` [Example 34, (S)-2-(7-methyl-4-oxobenzo[d][1,2,3]triazin-3(4H)-yl)-N-(1-p-tolylethyl)acetamide] were 347 nM and 7 nM.
The matching figures for `Cc1ccc([C@H](C)NC(=O)Cn2nnc3c(F)cccc3c2=O)cc1` [Example 16, (S)-2-(8-fluoro-4-oxobenzo[d][1,2,3]triazin-3(4H)-yl)-N-(1-p-tolylethyl)acetamide]: 708 nM and 9 nM.
For `COc1ccc([C@H](C)NC(=O)Cn2nnc3cccc(OC)c3c2=O)cc1` [Example 38, (S)-2-(5-methoxy-4-oxobenzo[d][1,2,3]triazin-3 (4H)-yl)-N-(1-(4-methoxyphenyl)ethyl)acetamide], the Ki at human GPR139 receptor [2] was 619 nM. Moreover, on human GPR139 receptor [3], the EC50 is 26 nM.
Taken in the same sequence, the figures for `Cc1ccc([C@H](C)NC(=O)Cn2nnc3c(C)cccc3c2=O)cc1` [Example 24, (S)-2-(8-methyl-4-oxobenzo[d][1,2,3]triazin-3(4H)-yl)-N-(1-p-tolylethyl)acetamide] were 72 nM and 9 nM.
As for `C[C@H](NC(=O)Cn1nnc2ccc(F)cc2c1=O)c1ccc(C(F)(F)F)cc1` [Example 64, (S)-2-(6-fluoro-4-oxobenzo[d][1,2,3]triazin-3(4H)-yl)-N-(1-(4-(trifluoromethyl)phenyl)ethyl)acetamide], at human GPR139 receptor [2], the Ki turned out to be 106 nM. The EC50 at human GPR139 receptor [3] is 13 nM.
In the case of `COc1ccc([C@H](C)NC(=O)Cn2nnc3c(Cl)cc(Cl)cc3c2=O)cc1` [Example 27, (S)-2-(6,8-dichloro-4-oxobenzo[d][1,2,3]triazin-3(4H)-yl)-N-(1-(4-methoxyphenyl)ethyl)acetamide], on human GPR139 receptor [2], the Ki amounted to 190 nM. Besides, the concentration giving a half-maximal response (EC50) at human GPR139 receptor [3] turned out to be 7 nM.
The matching figures for `COc1ccc([C@H](C)NC(=O)Cn2nnc3cccc(F)c3c2=O)cc1` [Example 33, (S)-2-(5-fluoro-4-oxobenzo[d][1,2,3]triazin-3(4H)-yl)-N-(1-(4-methoxyphenyl)ethyl)acetamide]: 4850 nM and 41 nM.
Taken in the same sequence, the figures for `COc1ccc([C@H](C)NC(=O)Cn2nnc3c(C)cc(C)cc3c2=O)cc1` [Example 42, (S)-2-(6,8-dimethyl-4-oxobenzo[d][1,2,3]triazin-3(4H)-yl)-N-(1-(4-methoxyphenyl)ethyl)acetamide] were 179 nM and 37 nM.
On to `COc1cccc2nnn(CC(=O)N[C@@H](C)c3ccc(C)cc3)c(=O)c12` [Example 3, (S)-2-(5-methoxy-4-oxobenzo[d][1,2,3]triazin-3(4H)-yl)-N-(1-p-tolylethyl)acetamide], for which the “cFos cell count, Mean” value came to 1628 in assay [1] (dose-response and time course experiment, 0.03 mg/kg 1 hr); 2243 in assay [1] (dose-response and time course experiment, 0.1 mg/kg 1 hr); 2458 in assay [1] (dose-response and time course experiment, 0.3 mg/kg 1 hr); 2777 in assay [1] (dose-response and time course experiment, 0.3 mg/kg 2 hr); 865 in assay [1] (dose-response and time course experiment, 0.3 mg/kg 4 hr); 2023 in assay [1] (dose-response and time course experiment, 3 mg/kg 1 hr).
